Several values for one entry are separate records, joined by “and”; a condition that tells them apart may be missing. Equal values may be shown once.
Tested on: K-562 leukemia growth, % test/control
Assay: Anticancer human tumor K-562 cell line growth inhibition;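 also: spheroids exposed to compounds for 7 days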;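 as to viability, T/C: 100% = DMSO vehicle wells and lower values mean fewer viable cells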
Details: spheroids with HUVEC and MSC; for viability, T/C: stronger effect = lower value
Method in brief: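 Multicellular complex spheroids of tumor cells with human endothelial cells (HUVEC) and mesenchymal stem cells; the LSD1 inhibitor iadademstat was combined with standard-of-care or investigational agents. Top concentration at or near clinical Cmax, half-log dilutions; final DMSO ≤0.25%.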

[1] = curve of first compound, second compound 0.1 µM
[2] = curve of first compound, second compound 0.316 µM
[3] = curve of first compound, second compound 1 µM
[4] = curve of first compound, second compound 3.16 µM
[5] = curve of first compound, second compound 10 µM
[6] = second compound 0.1 µM, first compound 0.0316 µM
[7] = second compound 0.1 µM, first compound 0.1 µM
[8] = second compound 0.1 µM, first compound 0.316 µM
[9] = second compound 0.1 µM, first compound 1 µM
[10] = second compound 0.1 µM, first compound 3.16 µM
[11] = second compound 0.1 µM, first compound 10 µM
[12] = second compound 0.316 µM, first compound 0.0316 µM
[13] = second compound 0.316 µM, first compound 0.1 µM
[14] = second compound 0.316 µM, first compound 0.316 µM
[15] = second compound 0.316 µM, first compound 1 µM
[16] = second compound 0.316 µM, first compound 3.16 µM
[17] = second compound 0.316 µM, first compound 10 µM
[18] = second compound 1 µM, first compound 0.0316 µM
[19] = second compound 1 µM, first compound 0.1 µM
[20] = second compound 1 µM, first compound 0.316 µM
[21] = second compound 1 µM, first compound 1 µM
[22] = second compound 1 µM, first compound 3.16 µM
[23] = second compound 1 µM, first compound 10 µM
[24] = second compound 3.16 µM, first compound 0.0316 µM
[25] = second compound 3.16 µM, first compound 0.1 µM
[26] = second compound 3.16 µM, first compound 0.316 µM
[27] = second compound 3.16 µM, first compound 1 µM
[28] = second compound 3.16 µM, first compound 3.16 µM
[29] = second compound 3.16 µM, first compound 10 µM
[30] = second compound 10 µM, first compound 0.0316 µM
[31] = second compound 10 µM, first compound 0.1 µM
[32] = second compound 10 µM, first compound 0.316 µM
[33] = second compound 10 µM, first compound 1 µM
[34] = second compound 10 µM, first compound 3.16 µM
[35] = second compound 10 µM, first compound 10 µM

COc1cc(C2c3cc4c(cc3C(OC3OC5COC(C)OC5C(O)C3O)C3COC(=O)C23)OCO4)cc(OC)c1O (configuration not stated) + NC1CC1c1ccc(-c2cccc(O)c2)cc1 was tested. Which IC50 [1] did it give?
The IC50 was 0.0323 µM.

What about the IC50 [2] of the same compound?
The IC50 was 0.0292 µM.

What about the IC50 [3] of the same compound?
Its IC50 is 0.0252 µM.

What about the IC50 [4] of the same compound?
The IC50 was 0.0211 µM.

What about the IC50 [5] of the same compound?
The IC50 was 0.0124 µM.

And the viability, T/C (second compound 0.1 µM, first compound 0.00949 µM)?
The viability, T/C was 89.1%.

What about the viability, T/C (second compound 0.1 µM, first compound 0.03 µM) of the same compound?
The viability, T/C was 34.1%.

What about the viability, T/C (second compound 0.1 µM, first compound 0.0949 µM) of the same compound?
Its viability, T/C is 40%.

What about the viability, T/C (second compound 0.1 µM, first compound 0.3 µM) of the same compound?
The viability, T/C was 32.2%.

And the viability, T/C (second compound 0.1 µM, first compound 0.949 µM)?
Its viability, T/C is 5.98%.

What about the viability, T/C (second compound 0.1 µM, first compound 3 µM) of the same compound?
Its viability, T/C is 1.51%.

What about the viability, T/C (second compound 0.316 µM, first compound 0.00949 µM) of the same compound?
The viability, T/C was 82.5%.

And the viability, T/C (second compound 0.316 µM, first compound 0.03 µM)?
The viability, T/C was 33.9%.

And the viability, T/C (second compound 0.316 µM, first compound 0.0949 µM)?
Its viability, T/C is 40%.

And the viability, T/C (second compound 0.316 µM, first compound 0.3 µM)?
The viability, T/C was 26.1%.

And the viability, T/C (second compound 0.316 µM, first compound 0.949 µM)?
The viability, T/C was 4.21%.

And the viability, T/C (second compound 0.316 µM, first compound 3 µM)?
Its viability, T/C is 1.39%.

What about the viability, T/C (second compound 1 µM, first compound 0.00949 µM) of the same compound?
The viability, T/C was 76.1%.

And the viability, T/C (second compound 1 µM, first compound 0.03 µM)?
The viability, T/C was 31.1%.

What about the viability, T/C (second compound 1 µM, first compound 0.0949 µM) of the same compound?
Its viability, T/C is 39%.

And the viability, T/C (second compound 1 µM, first compound 0.3 µM)?
The viability, T/C was 22.8%.

And the viability, T/C (second compound 1 µM, first compound 0.949 µM)?
Its viability, T/C is 3.44%.

What about the viability, T/C (second compound 1 µM, first compound 3 µM) of the same compound?
The viability, T/C was 2.06%.

What about the viability, T/C (second compound 3.16 µM, first compound 0.00949 µM) of the same compound?
Its viability, T/C is 68.8%.

What about the viability, T/C (second compound 3.16 µM, first compound 0.03 µM) of the same compound?
The viability, T/C was 28.7%.

And the viability, T/C (second compound 3.16 µM, first compound 0.0949 µM)?
Its viability, T/C is 40.2%.

What about the viability, T/C (second compound 3.16 µM, first compound 0.3 µM) of the same compound?
Its viability, T/C is 20%.

What about the viability, T/C (second compound 3.16 µM, first compound 0.949 µM) of the same compound?
The viability, T/C was 3.6%.

What about the viability, T/C (second compound 3.16 µM, first compound 3 µM) of the same compound?
The viability, T/C was 2.13%.

What about the viability, T/C (second compound 10 µM, first compound 0.00949 µM) of the same compound?
Its viability, T/C is 57.5%.

What about the viability, T/C (second compound 10 µM, first compound 0.03 µM) of the same compound?
The viability, T/C was 28.1%.

What about the viability, T/C (second compound 10 µM, first compound 0.0949 µM) of the same compound?
The viability, T/C was 34.1%.

And the viability, T/C (second compound 10 µM, first compound 0.3 µM)?
Its viability, T/C is 14.8%.

What about the viability, T/C (second compound 10 µM, first compound 0.949 µM) of the same compound?
The viability, T/C was 2.21%.

What about the viability, T/C (second compound 10 µM, first compound 3 µM) of the same compound?
Its viability, T/C is 1.35%.

Which results are given for COc1ccc([C@@H](O)c2cc(-c3ncnc4cc(N5CCOCC5)ccc34)c(F)cc2Cl)nn1 + NC1CC1c1ccc(-c2cccc(O)c2)cc1?
IC50 [1]: 7.9 µM; IC50 [2]: 7.53 µM; IC50 [3]: 6.49 µM; IC50 [4]: 4.84 µM; IC50 [5]: 1.16 µM; viability, T/C [6]: 111%; viability, T/C [7]: 107%; viability, T/C [8]: 106%; viability, T/C [9]: 106%; viability, T/C [10]: 93.1%; viability, T/C [11]: 38.8%; viability, T/C [12]: 104%; viability, T/C [13]: 107%; viability, T/C [14]: 101%; viability, T/C [15]: 98.6%; viability, T/C [16]: 85.4%; viability, T/C [17]: 38.2%; viability, T/C [18]: 99.1%; viability, T/C [19]: 98.8%; viability, T/C [20]: 99.5%; viability, T/C [21]: 98.3%; viability, T/C [22]: 77%; viability, T/C [23]: 33.8%; viability, T/C [24]: 103%; viability, T/C [25]: 99.6%; viability, T/C [26]: 94.2%; viability, T/C [27]: 83.5%; viability, T/C [28]: 59.7%; viability, T/C [29]: 32.7%; viability, T/C [30]: 96.6%; viability, T/C [31]: 96.9%; viability, T/C [32]: 66.7%; viability, T/C [33]: 52.9%; viability, T/C [34]: 38.9%; viability, T/C [35]: 24.6%

How did the IC50 [1] turn out when CC1(C)CCC(CN2CCN(c3ccc(C(=O)NS(=O)(=O)c4ccc(NCC5CCOCC5)c([N+](=O)[O-])c4)c(Oc4cnc5[nH]ccc5c4)c3)CC2)=C(c2ccc(Cl)cc2)C1 + NC1CCC(NC2CC2c2ccccc2)CC1 was run?
The IC50 was 6.56 µM.

What about the IC50 [2] of the same compound?
The IC50 was 6.65 µM.

What about the IC50 [3] of the same compound?
The IC50 was 6.57 µM.

What about the IC50 [4] of the same compound?
Its IC50 is 6.94 µM.

What about the IC50 [5] of the same compound?
Its IC50 is 6.52 µM.

What about the viability, T/C [6] of the same compound?
The viability, T/C was 99.8%.

And the viability, T/C [7]?
Its viability, T/C is 102%.

And the viability, T/C [8]?
The viability, T/C was 101%.

What about the viability, T/C [9] of the same compound?
Its viability, T/C is 104%.

What about the viability, T/C [10] of the same compound?
Its viability, T/C is 109%.

What about the viability, T/C [11] of the same compound?
The viability, T/C was 19.1%.

What about the viability, T/C [12] of the same compound?
The viability, T/C was 102%.

And the viability, T/C [13]?
Its viability, T/C is 104%.

And the viability, T/C [14]?
Its viability, T/C is 104%.

And the viability, T/C [15]?
Its viability, T/C is 101%.

What about the viability, T/C [16] of the same compound?
Its viability, T/C is 110%.

And the viability, T/C [17]?
Its viability, T/C is 20%.

And the viability, T/C [18]?
The viability, T/C was 104%.

And the viability, T/C [19]?
The viability, T/C was 104%.

What about the viability, T/C [20] of the same compound?
Its viability, T/C is 107%.

And the viability, T/C [21]?
The viability, T/C was 108%.

What about the viability, T/C [22] of the same compound?
Its viability, T/C is 110%.

What about the viability, T/C [23] of the same compound?
The viability, T/C was 17.6%.

What about the viability, T/C [24] of the same compound?
The viability, T/C was 105%.

What about the viability, T/C [25] of the same compound?
Its viability, T/C is 103%.

And the viability, T/C [26]?
Its viability, T/C is 104%.

And the viability, T/C [27]?
The viability, T/C was 108%.

And the viability, T/C [28]?
The viability, T/C was 106%.

And the viability, T/C [29]?
The viability, T/C was 24.3%.

What about the viability, T/C [30] of the same compound?
Its viability, T/C is 97.6%.

And the viability, T/C [31]?
The viability, T/C was 99.6%.

And the viability, T/C [32]?
Its viability, T/C is 99.8%.

And the viability, T/C [33]?
The viability, T/C was 101%.

What about the viability, T/C [34] of the same compound?
Its viability, T/C is 101%.

What about the viability, T/C [35] of the same compound?
The viability, T/C was 20.5%.

How did the viability, T/C (compound 0.0316 µM) turn out when O=C(c1cc(Cc2n[nH]c(=O)c3ccccc23)ccc1F)N1CCN(C(=O)C2CC2)CC1 was run?
The viability, T/C was 97% and 101%.

What about the viability, T/C (compound 0.1 µM) of the same compound?
Its viability, T/C is 99.8% and 101%.

And the viability, T/C (compound 0.316 µM)?
Its viability, T/C is 99% and 103%.

And the viability, T/C (compound 1 µM)?
The viability, T/C was 97.1% and 101%.

What about the viability, T/C (compound 3.16 µM) of the same compound?
Its viability, T/C is 88.5% and 94.2%.

What about the viability, T/C (compound 10 µM) of the same compound?
The viability, T/C was 48.1% and 50.1%.

What about the IC50 (curve of compound) of the same compound?
Its IC50 is 9.47 µM and > 10 µM.

Reference: PubChem BioAssay AID1918948 (Molecular Pharmacology Branch, DTP, NCI, 2023)
